Data taken from patent US20260193227A1, “THERAPEUTIC COMPOUNDS AND METHODS” (UNIVERSITY OF IOWA RESEARCH FOUNDATION, priority 2022, published 2026).

Tests used:
EUFA423F cells [1] = experiment: CellTiter-Glo cell viability, BRCA2-mutated cells; assay type: cell-based, human; details: for toxicity towards EUFA423 cells: BRCA2-mutated cells, yes/no; for toxicity / selective toxicity towards BRCA2-mutated cells in cell viability assays: EUFA423F versus EUFA423F HA, CellTiter-Glo, 72 hours
Excerpt: (§1) Cell lines: EUFA423F cells that are derived from a Fanconi Anemia patient with complementation group D1 and have biallelic mutations (7691 insAT and 9900 insA) in BRCA2 that result in two different truncated forms of BRCA2 (Howlett N G, et al., Science (New York, NY). 2002; 297(5581):606-9) and its counterpart complemented with expression vector for full-length BRCA2 (EUFA HA) were a generous gift from Dr. Simon Powell, Molecular Biology Program, Radiation Oncology, Sloan-Kettering Cancer Center, New York, NY).
(§2) Cell proliferation assay: Selective toxicity of the compounds towards human BRCA2 deficient cells was tested in EUFA423F and its complement EUFA423F HA using CellTiter-Glo® Luminescent Cell Viability Assay (Promega, Madison, WI). The cell lines were maintained in DMEM (Gibco/ThermoFisher Scientific, Waltham, MA) supplemented with 10% FBS and 10 mM HEPES (Gibco/ThermoFisher Scientific, Waltham, MA). EUFA423F HA cells were routinely supplemented with G418 in order to maintain the BRCA2 expression plasmid. Both cell lines were seeded in sterile tissue culture treated, white opaque 384-well plates (Perkin Elmer Inc., Waltham, MA) 3000 cells/well for EUFA423F HA and 2500 cells/well for EUFA423F) and allowed to adhere for 24 hours. Compounds dissolved in DMSO were added in the concentration range of 0-100 μM. Controls were treated with equivalent DMSO volumes. The cells were treated with compounds for 72 hours (to ensure that all cells experienced at least two S-phases). Post treatment, the cells were washed, treated with the CellTiter-Glo® reagent was added and the plate was analyzed as using a Gen5 (ver2.1) luminosity plate reader. The luminescence that reports on ATP generation by the surviving cells was normalized for the DMSO treated control as 100%. The normalized luminescence (average±standard deviation for at least three independent measurements obtained with different cell passages) was plotted in GraphPad Prism as a function of compound concentration. Clonogenic Survival: EUFA423F and EUFA423F HA cells were seeded in a 96 well plate. Compounds dissolved in DMSO were added to final concentrations of 0, 50, and 100 μM for the compound of Example 8 and the compound of Example 1, and 0, 5, and 10 μM for the compounds of Examples 2-7. The cells were treated with compounds for 72 hours. Post treatment, cell cultures were harvested by collecting all non-adherent cells in the well, trypsinization of all adherent cells, combining, pelleting and then resuspending in fresh media. Cultures treated with DMSO only were subsequently counted using a hemocytometer and plated at a density of 2000, 200 and 20 cells per well in 6-well culture plates, equal volumes of cultures were plated each inhibitor concentration. Each treatment and cell density conditions for both cell lines were plated in triplicate. After expanding the colonies for a period of 8 days, cultures were fixed with a solution of 70% ethanol and crystal violet for clonogenic survival analysis. Pictures of individual wells were taken using GelCount (Version 1.3.0.4) by Oxford Optronix (Abingdon UK). A colony had to contain at least 50 cells to be counted. The number of surviving colonies following treatment are presented as a percentage of number of colonies in the experiment where the cells were treated with DMSO only.

RPA-ssDNA interaction = molecular target: T1, RPA-ssDNA interaction (Homo sapiens, UniProt P27694); experiment: FRET-based inhibition of the RPA-ssDNA interaction; assay type: binding; details: 1 nM RPA, 1 nM Cy3-dT30-Cy5 ssDNA; value ± fitting error; N/A = no activity
T1 construct: made in house
Procedure: (§3) Proteins: The 6×His-tagged human RAD52 proteins (wild type and mutants) and untagged human RPA were expressed and purified as previously described in (Hengel S R, eLife. 2016; 5; Grimme J M, et al., Nucleic Acids Res. 2010; 38(9):2917-30; and Henricksen L A, et al., The Journal of biological chemistry. 1994; 269(15):11121-32). RPA and RAD52 protein concentrations were determined by measuring absorbance at 280 nm using extinction coefficients of 88,830 M^−1 cm^−1 and 40,470 M^−1 cm^−1, respectively.
(§4) FRET-based DNA binding and inhibition assays: FRET-based that monitor the RAD52-ssDNA, RPA-ssDNA and RAD52-RPA-ssDNA binding were carried out as previously described (Hengel S R, eLife. 2016; 5; Grimme J M, et al., Nucleic Acids Res. 2010; 38(9):2917-30; and Grimme J M, Spies M. FRET-based assays to monitor DNA binding and annealing by Rad52 recombination mediator protein. Methods in molecular biology (Clifton, NJ). 2011; 745:463-83) using Cary Eclipse Spectrofluorimeter (Agilent) at 25° C., in 5 mm quartz cuvettes, and in buffer containing 30 mM Tris-Acetate (pH 7.5) and 1 mM DTT. Cy3 dye was excited at 530 nm and its emission was monitored at 565 nm. Emission of Cy5 acceptor fluorophore excited through the energy transfer from Cy3 donor is monitored at 660 nm simultaneously with emission of Cy3 dye. Both the excitation and the emission slits were set to 10 nm. All experiments were carried out using 1 nM (molecules) Cy3-dT30-Cy5 ssDNA. The optimal concentrations of the RAD52 (6 nM) and RPA (1 nM) proteins were selected by titrating the respective protein into 1 nM Cy3-dT30-Cy5 solution, and chosen based on the largest separation of the FRET values corresponding to the protein bound and free DNA.
(§5) The inhibition of the RAD52-ssDNA, RPA-ssDNA and RAD52-RPA-ssDNA complexes was evaluated by titrating each compound to the respective complex, measuring Cy3 and Cy5 fluorescence, and calculating FRET as previously described (Hengel, S. R., et al., eLife, 5).
(§6) Spectral properties of many compounds overlapped with the Cy3 and Cy5 fluorescence. To correct the calculated FRET values for the compound signal, the fluorogenic compounds were titrated into buffer and into solution of 1 nM Cy3-dT30-Cy5. For all tested compounds, the change in the signal in the Cy3 and Cy5 channels with and without Cy3/Cy5-labeled DNA present was the same. […] To account for the dye fluorescence, for each compound concentration, the apparent change in FRET of the ssDNA in the presence the compound was subtracted from the respective FRET signal of the RAD52-ssDNA, RPA-ssDNA or RAD52-ssDNA-RPA complex at the same inhibitor concentration. The IC50 values were calculated by fitting the corrected FRET data to the four-parameter dose response model using GraphPad Prism. All data are shown as average for at least three independent experiments ±standard deviation. The IC50 values are presented with their respective fitting error.

RAD52-ssDNA interaction [2] = molecular target: T2, RAD52-ssDNA interaction (Homo sapiens, UniProt P43351); experiment: FRET-based inhibition of the RAD52-ssDNA interaction; assay type: binding; details: for IC50: 6 nM RAD52, 1 nM Cy3-dT30-Cy5 ssDNA, 25° C., value ± fitting error; for selectivity towards RAD52 over RPA: in vitro FRET-based assays
T2 construct: 6xHis; made in house
T2 sequence (P43351 1-418): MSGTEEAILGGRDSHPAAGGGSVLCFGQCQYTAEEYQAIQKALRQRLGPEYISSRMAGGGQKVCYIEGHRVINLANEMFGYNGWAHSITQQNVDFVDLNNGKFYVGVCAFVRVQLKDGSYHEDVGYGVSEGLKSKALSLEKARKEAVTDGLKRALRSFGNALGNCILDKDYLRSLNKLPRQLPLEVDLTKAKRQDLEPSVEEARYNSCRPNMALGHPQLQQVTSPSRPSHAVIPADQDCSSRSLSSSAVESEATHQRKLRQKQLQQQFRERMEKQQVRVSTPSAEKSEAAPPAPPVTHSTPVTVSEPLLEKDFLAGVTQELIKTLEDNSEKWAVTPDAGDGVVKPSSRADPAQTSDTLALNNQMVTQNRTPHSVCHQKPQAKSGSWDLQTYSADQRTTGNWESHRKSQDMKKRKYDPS
Procedure: as §3, §4, §5, §6

EUFA423F HA cells [3] = experiment: CellTiter-Glo cell viability, BRCA2-complemented cells; assay type: cell-based, human; details: yes/no
Excerpt: as §1, §2

RPA-ssDNA-RAD52 complex = molecular target: T3, RPA-ssDNA-RAD52 complex (Homo sapiens, UniProt P43351); experiment: FRET-based inhibition of the RPA-ssDNA-RAD52 complex; assay type: binding; details: for IC50: value ± fitting error, N/A = no activity
T3 construct: 6xHis; made in house
T3 sequence (P43351 1-418): T2 sequence (P43351 1-418)
Procedure: as §3, §4, §5, §6

[4] = Solubility in cell culture medium; assay type: physicochemical; details: for solubility: plasma or biological fluid
EUFA423F HA cells [5] = details: Clark et al. 2012; Howlett et al. 2002; cited from earlier work
EUFA423F cells [6] = details: Clark et al. 2012; cited from earlier work
BRCA2-depleted cells = details: Hengel et al. 2016; cited from earlier work
RAD52-ssDNA interaction [7] = molecular target: T2, RAD52-ssDNA interaction; details: Hengel et al. 2016; cited from earlier work

T1 sequence (P27694 whole entry): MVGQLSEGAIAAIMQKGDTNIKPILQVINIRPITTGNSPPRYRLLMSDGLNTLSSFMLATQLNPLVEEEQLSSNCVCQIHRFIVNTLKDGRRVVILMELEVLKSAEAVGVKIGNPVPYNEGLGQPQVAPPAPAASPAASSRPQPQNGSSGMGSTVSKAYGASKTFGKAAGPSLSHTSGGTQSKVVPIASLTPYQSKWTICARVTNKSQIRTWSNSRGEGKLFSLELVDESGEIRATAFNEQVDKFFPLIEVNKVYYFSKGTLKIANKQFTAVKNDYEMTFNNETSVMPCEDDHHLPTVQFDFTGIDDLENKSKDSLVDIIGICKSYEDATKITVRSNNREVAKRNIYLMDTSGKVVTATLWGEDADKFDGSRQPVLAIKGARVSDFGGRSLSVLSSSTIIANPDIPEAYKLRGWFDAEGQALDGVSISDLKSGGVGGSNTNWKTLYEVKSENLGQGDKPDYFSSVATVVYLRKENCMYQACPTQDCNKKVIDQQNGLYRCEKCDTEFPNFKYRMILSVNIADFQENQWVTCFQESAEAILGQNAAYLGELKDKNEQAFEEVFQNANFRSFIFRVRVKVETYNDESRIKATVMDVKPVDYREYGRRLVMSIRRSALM
T1 sequence (P15927 whole entry partner): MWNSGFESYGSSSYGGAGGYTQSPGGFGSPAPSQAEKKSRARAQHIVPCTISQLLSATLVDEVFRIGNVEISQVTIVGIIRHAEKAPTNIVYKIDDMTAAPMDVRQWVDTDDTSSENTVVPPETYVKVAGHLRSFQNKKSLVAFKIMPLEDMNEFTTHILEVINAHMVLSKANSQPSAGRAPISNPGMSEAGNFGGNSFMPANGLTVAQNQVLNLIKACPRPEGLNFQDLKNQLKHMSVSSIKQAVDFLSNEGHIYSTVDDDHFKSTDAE
T1 sequence (P35244 whole entry partner): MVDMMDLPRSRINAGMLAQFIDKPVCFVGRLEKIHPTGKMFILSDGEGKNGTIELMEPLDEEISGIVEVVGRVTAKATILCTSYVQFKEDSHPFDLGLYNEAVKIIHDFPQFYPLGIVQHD

| IC50 (RPA-ssDNA interaction) [µM] | IC50 (RAD52-ssDNA interaction [2]) [µM] | IC50 (RPA-ssDNA-RAD52 complex) [µM] | SMILES | toxicity towards EUFA423 cells (EUFA423F cells [1]) | toxicity / selective toxicity towards BRCA2-mutated cells in cell viability assays (EUFA423F cells [1]) | selectivity towards RAD52 over RPA (RAD52-ssDNA interaction [2]) | toxicity towards EUFA423 HA (BRCA2-complemented cells) (EUFA423F HA cells [3]) | further results |
| --- | --- | --- | --- | --- | --- | --- | --- | --- |
| 1.12 ± 0.13 | 2.02 ± 0.12 | 0.76 ± 0.05 | Cc1c([N+](=O)[O-])ccn(CC(=O)c2c[nH]c3ccc(Br)cc23)c1=O [Example 6] | no | failed to inhibit both BRCA2-mutated and BRCA2-complemented cells | shows selectivity towards RAD52 over RPA | no | solubility / aggregation in cell culture medium [4]: poorly soluble in cell culture medium |
| – | – | – | Cc1ccn(CC(=O)c2c[nH]c3ccc(F)cc23)c(=O)c1[N+](=O)[O-] [Example 4] | yes | selectively toxic to BRCA2-mutated cells | shows selectivity towards RAD52 over RPA | no | solubility [4]: > 10 µM |
| – | – | – | CO[C@@]12[C@H](COC(N)=O)C3=C(C(=O)C(C)=C(N)C3=O)N1C[C@@H]1N[C@@H]12 [mitomycin C] | – | – | – | – | sensitivity of the BRCA2-complemented (HA) cell line to the agent (EUFA423F HA cells [5]): resistant |
| – | – | – | O=C(Cn1cc([N+](=O)[O-])cc(Cl)c1=O)c1c[nH]c2ccc(F)cc12 [Example 5] | yes | selectively toxic to BRCA2-mutated cells | shows selectivity towards RAD52 over RPA | no | – |
| – | – | – | O=C(Cn1cc([N+](=O)[O-])cc(F)c1=O)c1c[nH]c2ccc(F)cc12 [Example 2] | yes | – | shows selectivity towards RAD52 over RPA | no | toxicity / selective toxicity towards BRCA2-mutated cells in cell viability assays (EUFA423F cells [1]; listed as Z58-54): selectively toxic to BRCA2-mutated cells; toxicity / selective toxicity towards BRCA2-mutated cells in cell viability assays (EUFA423F cells [1]; listed as Z5862216254): effective and specific in cell viability assays; effect on the RPA-ssDNA-RAD52 complex (RPA-ssDNA-RAD52 complex; FRET titration): unable to dislodge RAD52 |
| – | – | – | C[C@]1(c2nc3c(C(N)=O)cccc3[nH]2)CCCN1 [veliparib] | – | – | – | – | sensitivity of the BRCA2-complemented (HA) cell line to the agent (EUFA423F HA cells [5]): resistant; sensitivity of EUFA423F cells to the agent (EUFA423F cells [6]): sensitive |
| – | – | – | Oc1cc(O)c2c(c1)O[C@H](c1cc(O)c(O)c(O)c1)[C@H](O)C2 [EGC, epigallochatechin] | – | – | – | – | efficacy in BRCA2-depleted cells (BRCA2-depleted cells): effective; competition with ssDNA binding to RAD52 (RAD52-ssDNA interaction [7]): competed with ssDNA binding to RAD52 |
| 15.9 ± 1.4 | 7.97 ± 0.84 | 7 ± 0.29 | Cc1cc([N+](=O)[O-])cn(CC(=O)c2c[nH]c3ccc(Cl)cc23)c1=O [Example 3] | yes | selectively toxic to BRCA2-mutated cells | shows selectivity towards RAD52 over RPA | no | solubility [4]: > 10 µM |
| 28.9 ± 4 | 2.84 ± 0.32 | 4.55 ± 0.16 | O=C(Cn1cc([N+](=O)[O-])cc(Br)c1=O)c1c[nH]c2ccc(Cl)cc12 [Example 7] | yes | selectively toxic to BRCA2-mutated cells | shows selectivity towards RAD52 over RPA | no | – |
